Data reported in US20260125357A1, “LACTATE ENHANCING COMPOUNDS AND USES THEREOF” (GLIAPHARM SA, priority 2022, published 2026).

Key:
primary astrocytes [1] = assay: Extracellular medium acidification (SNARF5) assay in astrocytes; type: cell-based; conditions: Mus musculus, Astrocyte; astrocytes in vitro; compounds 10 nM to 30 μM; read-out: Activity (EC50 class, extracellular medium acidification SNARF5)
Procedure: To assess for the effect of the compounds of the invention, those were tested in primary mouse astrocytes and astrocytes differentiated from human-derived induced pluripotent stem cells (iPSCs). Secretion of lactate was measured indirectly through the acidification of extracellular medium using extracellular pH sensor SNARE-5F-(AND-6)-CAR (SNARF5) as described below.
(§1) Primary cultures of cerebrocortical astrocytes were obtained from 1 to 2-day-old OF1 mouse pups (Charles River Laboratories). Briefly, cortices were isolated and minced in small pieces under a dissecting microscope. The cells were incubated for 30 min at 37° C. in a solution containing 20 U/ml papain, 1 mM L-cysteine and 10 kU/ml DNase I. After dissociation, papain activity was stopped by the addition of fetal calf serum (FCS). Single-cell suspension was then obtained by mechanical dissociation, which consisted in cells trituration in a DMEM D7777 medium supplemented with 44 mm NaHCO3, 10 ml/L antibiotic/antimycotic solution and 10% FCS. The cells were seeded at an average density of ˜10′000 cells/cm^2 on poly-D-lysine coated 96- or 12-well culture plates, depending on their use, and grown in DMEM D7777 medium supplemented with 44 mm NaHCO3, 10 ml/L antibiotic/antimycotic solution and 10% FCS at 37° C. in a humidified atmosphere containing 5% CO2/95% air. Culture medium was renewed twice a week. Cells were stimulated and harvested between DIV14 and DIV17, when confluence and cell growth were optimal.
Secretion of lactate was measured indirectly through the acidification of extracellular medium using extracellular pH sensor SNARF-5F-(AND-6)-CAR (SNARF5). After washing cells twice with stimulation medium (DMEM (D5030, Sigma), 1 mM […], and 5 mM Glucose, pH 7.4) at 37° C., cells were stimulated with compounds at a final concentration ranging from 10 nM to 30 μM in 50 μl per well of stimulation medium supplemented with 10 μM of SNARF5 (Life Technologies Corporation). Each compound was tested in two different plates for duplicates. After 30, 60 and 90 min stimulation, fluorescence was read at exc. (excitation) 480 nm/emm. (emission) 580 nm and at exc 480 nm/emm. 630 nm. The ratio of fluorescence between 630 nm and 580 emission values, which is proportional to extracellular pH, was calculated. In each plate, 8 wells were used for negative controls (DMSO 0.1%) and 8 wells were used for positive controls (CCCP 2 μM in DMSO). Results are shown as % of positive control effect (0% and 100% being activities of the Veh and positive control, respectively).

primary astrocytes [2] = assay: MTT mitochondrial activity assay in primary astrocytes; type: cell-based, mouse; conditions: different concentrations, after 1.5 h or 24 h
Procedure: as §1
To monitor mitochondrial activity in astrocytes, which is linked to the metabolic process of glycolysis and production of lactate, astrocytes in 96-well plates were stimulated for 24 h (37° C. 5% CO2/95% air) with the compounds of the invention ranging from 10 nM to 10 μM.
After stimulation, 5 mg/ml thiazol blue tetrazolium bromide (MTT) in D5030 medium complemented with 5 mM D-glucose and 44 mM sodium bicarbonate (pH 7.2) was added to each well, and cells were incubated for 4 h at 37° C. (5% CO2). The medium was then removed and the amount of reduced MTT, i.e formazan, solubilized in DMSO (50 μl/well) was determined using a spectrophotometer (absorbance of 570 nm).
The mitochondrial activity was monitored in MTT colorimetric assay in primary astrocytes treated with Compounds (1), (2), (3), (4) (5), (9) and (10) at different concentrations after 1.5 h (FIG. 2 A, B, D, E, F, C, H, respectively) or 24 h (FIG. 2 H, I, K, L, M, J, N, respectively).

SMILES	EC50 (primary astrocytes [1])	mitochondrial activity (MTT colorimetric assay) (primary astrocytes [2])
CS(=O)(=O)c1ccc(Nc2nccc3cc(O)c(O)cc23)cc1 [Compound 5, 1-(4-methylsulfonylanilino)isoquinoline-6,7-diol]	< 1 µM	none of the selected compounds had direct effect on mitochondrial activity
CCOc1cc2ccnc(Nc3ccc(S(C)(=O)=O)cc3)c2cc1O [Compound 6, 6-ethoxy-1-(4-methylsulfonylanilino)isoquinolin-7-ol]	> 1 µM	–
CCOc1cc2c(Nc3ccc(S(C)(=O)=O)cc3)nccc2cc1O [Compound 7, 7-ethoxy-1-(4-methylsulfonylanilino)isoquinolin-6-ol]	> 1 µM	–
CCOc1cc2ccnc(Nc3ccc(S(C)(=O)=O)cc3)c2cc1OCC [Compound 8, 6,7-diethoxy-N-(4-methylsulfonylphenyl)isoquinolin-1-amine]	< 1 µM	–
COc1cc2ccnc(Nc3ccc(N4CCCC4=O)cc3)c2cc1OC [Compound 9, 1-[4-[(6,7-dimethoxy-1-isoquinolyl)amino]phenyl]pyrrolidin-2-one]	< 1 µM	none of the selected compounds had direct effect on mitochondrial activity
C=COc1ccc2c(Nc3ccc(S(C)(=O)=O)cc3)nccc2c1 [Compound 10, N-(4-methylsulfonylphenyl)-6-vinyloxy-isoquinolin-1-amine]	< 1 µM	none of the selected compounds had direct effect on mitochondrial activity
CC(C)Oc1ccc2c(Nc3ccc(S(C)(=O)=O)cc3)nccc2c1 [Compound 11, 6-isopropoxy-N-(4-methylsulfonylphenyl)isoquinolin-1-amine]	< 1 µM	–
CS(=O)(=O)c1ccc(Nc2nccc3cc(-c4ncccn4)ccc23)cc1 [Compound 12, N-(4-methylsulfonylphenyl)-6-pyrimidin-2-yl-isoquinolin-1-amine]	< 1 µM	–
CS(=O)(=O)c1ccc(Nc2nccc3ccc(O)cc23)cc1 [Compound 13, 1-(4-methylsulfonylanilino)isoquinolin-7-ol]	> 1 µM	–
CC(=O)Nc1ccc2ccnc(Nc3ccc(S(C)(=O)=O)cc3)c2c1 [Compound 14, N-[1-(4-methylsulfonylanilino)-7-isoquinolyl]acetamide]	< 1 µM	–
CCNc1ccc2ccnc(Nc3ccc(S(C)(=O)=O)cc3)c2c1 [Compound 15, N7-ethyl-N1-(4-methylsulfonylphenyl)isoquinoline-1,7-diamine]	> 1 µM	–
C=Cc1cc2c(Nc3ccc(S(C)(=O)=O)cc3)nccc2cc1OC [Compound 16, 6-methoxy-N-(4-methylsulfonylphenyl)-7-vinyl-isoquinolin-1-amine]	< 1 µM	–
CCc1cc2c(Nc3ccc(S(C)(=O)=O)cc3)nccc2cc1OC [Compound 17, 7-ethyl-6-methoxy-N-(4-methylsulfonylphenyl)isoquinolin-1-amine]	< 1 µM	–
CCc1cc2c(Nc3ccc(S(C)(=O)=O)cc3)nccc2cc1O [Compound 18, 7-ethyl-1-(4-methylsulfonylanilino)isoquinolin-6-ol]	< 1 µM	–
CS(=O)(=O)c1ccc(Nc2nccc3cc(O)c(Br)cc23)cc1 [Compound 19, 7-bromo-1-(4-methylsulfonylanilino)isoquinolin-6-ol]	< 1 µM	–
COc1cc2ccnc(Nc3ccc(S(C)(=O)=O)cc3)c2cc1NCc1ccccc1 [Compound 20, N7-benzyl-6-methoxy-N1-(4-methylsulfonylphenyl)isoquinoline-1,7-diamine]	< 1 µM	–
COc1cc2ccnc(Nc3ccc(S(C)(=O)=O)cc3)c2cc1NCC1CC1 [Compound 21, N7-(cyclopropylmethyl)-6-methoxy-N1-(4-methylsulfonylphenyl)isoquinoline-1,7-diamine]	< 1 µM	–

SMILES	EC50 (primary astrocytes [1])	mitochondrial activity (MTT colorimetric assay) (primary astrocytes [2])
CCCNc1cc2c(Nc3ccc(S(C)(=O)=O)cc3)nccc2cc1OC [Compound 22, 6-methoxy-N1-(4-methylsulfonylphenyl)-N7-propyl-isoquinoline-1,7-diamine]	< 1 µM	–
COc1cc2c(Nc3ccc(S(C)(=O)=O)cc3)nccc2cc1NCC1CC1 [Compound 23, N6-(cyclopropylmethyl)-7-methoxy-N1-(4-methylsulfonylphenyl)isoquinoline-1,6-diamine]	< 1 µM	–
COc1cc2c(Nc3ccc(S(C)(=O)=O)cc3)nccc2cc1N1CCC1 [Compound 24, 6-(azetidin-1-yl)-7-methoxy-N-(4-methylsulfonylphenyl)isoquinolin-1-amine]	< 1 µM	–
CCc1cc2ccnc(Nc3ccc(S(C)(=O)=O)cc3)c2cc1O [Compound 25, 6-ethyl-1-[(4-methanesulfonylphenyl)amino]isoquinolin-7-ol]	< 1 µM	–
CCOc1cc2ccnc(Nc3ccc(S(=O)(=O)CC)cc3)c2cc1OCC [Compound 26, N-[4-(ethanesulfonyl)phenyl]-6,7-diethoxyisoquinolin-1-amine]	< 1 µM	–
CCOc1cc2ccnc(Nc3ccc(C4COC4)cc3)c2cc1OCC [Compound 27, 6,7-diethoxy-N-[4-(oxetan-3-yl)phenyl]isoquinolin-1-amine]	< 1 µM	–
CCOc1cc2ccnc(Nc3ccc(-c4ccon4)cc3)c2cc1OCC [Compound 28, 6,7-diethoxy-N-[4-(1,2-oxazol-3-yl)phenyl]isoquinolin-1-amine]	< 1 µM	–
CCOc1cc2ccnc(Nc3ccc(-c4ccno4)cc3)c2cc1OCC [Compound 29, 6,7-diethoxy-N-[4-(1,2-oxazol-5-yl)phenyl]isoquinolin-1-amine]	< 1 µM	–
CCOc1cc2ccnc(Nc3ccc(S(C)(=O)=O)c(F)c3)c2cc1OCC [Compound 30, 6,7-diethoxy-N-(3-fluoro-4-methanesulfonylphenyl)isoquinolin-1-amine]	< 1 µM	–
CCOc1cc2ccnc(Nc3ccc(S(C)(=O)=O)cc3F)c2cc1OCC [Compound 31, 6,7-diethoxy-N-(2-fluoro-4-methanesulfonylphenyl)isoquinolin-1-amine]	< 1 µM	–
CCOc1cc2ccnc(Nc3ccc(S(=O)(=O)C4CC4)cc3)c2cc1OCC [Compound 32, N-[4-(cyclopropanesulfonyl)phenyl]-6,7-diethoxyisoquinolin-1-amine]	< 1 µM	–
CCOc1cc2ccnc(Nc3ccc(S(C)(=O)=O)cc3)c2cc1OCCF [Compound 33, 6-ethoxy-7-(2-fluoroethoxy)-N-(4-methanesulfonylphenyl)isoquinolin-1-amine]	< 1 µM	–
CS(=O)(=O)c1ccc(Nc2nccc3cc(OCCF)c(OCCF)cc23)cc1 [Compound 34, 6,7-bis(2-fluoroethoxy)-N-(4-methanesulfonylphenyl)isoquinolin-1-amine]	< 1 µM	–
CC(C)Oc1ccc2c(Cc3ccc(S(C)(=O)=O)cc3)nccc2c1 [Compound 35, 1-[(4-methanesulfonylphenyl)methyl]-6-(propan-2-yloxy)isoquinoline]	< 1 µM	–
CS(=O)(=O)c1ccc(Nc2nccc3cc(OCc4ccc(F)cc4)ccc23)cc1 [Compound 36, 6-[(4-fluorophenyl)methoxy]-N-(4-methanesulfonylphenyl)isoquinolin-1-amine]	< 1 µM	–
CCCc1cc2c(Nc3ccc(S(C)(=O)=O)cc3)nccc2cc1OCC [Compound 37, 6-ethoxy-N-(4-methanesulfonylphenyl)-7-propylisoquinolin-1-amine]	< 1 µM	–
